# According to patent publication US8946482B2, “Salts of rasagiline and pharmaceutical preparations thereof” (Ratiopharm GmbH, priority 2009, dated 2015):
# Where two headings read alike, the source gives them in different places.
# Conditions: for physical state of the salt: room temperature
# Description: The term “liquid” means that the salt is in a state of matter where the particles are loose and can freely form a distinct surface at the boundaries of the bulk material. The liquid's shape is determined by the container it fills. The liquid can be of low or high viscosity, e.g. in the form of an oil or thick oil.
# The liquid salt of the present invention can be prepared by mixing rasagiline and the acid and recovering the salt. […] Efficient mixing can be mediated by the use of a mixer mill. Alternatively, the rasagiline and the acid can be mixed in the presence of a solvent. In this case, either the rasagiline or the acid or the rasagiline and the acid can be suspended or dissolved in the same or different solvents before mixing. For example, first the rasagiline can be dissolved in the solvent and then the acid is added to this solution. Suitable solvents are, e.g., water, tetrahydrofurane, isopropyl alcohol, acetone, diisopropyl ether, and mixtures thereof. Preferred solvents are diisopropyl ether and acetone.
# In the following table 1, the reference examples and examples of the present invention are summarized: […]
Compound,physical state of the salt,also measured
"C#CCN[C@@H]1CCc2ccccc21 [Ref. Ex. 8, Rasagiline 4-dodecylbenzenesulfonate]",–,physical state of the salt (listed as rasagiline dodecyl benzene sulphonate): solids
"C#CCN[C@@H]1CCc2ccccc21 [Ex. 3, Rasagiline Propanoate]",–,physical state of the salt at 0° C. (0° C.): solid; physical state of the salt (listed as Rasagiline propionate): oil
Rasagiline Docusate [Ref. Ex. 6],solid wax,–
"C#CCN[C@@H]1CCc2ccccc21 [Ref. Ex. 7, Rasagiline Lauryl Sulphate]",solids,–
"C#CCNC1CCc2ccccc21.O=C1NS(=O)(=O)c2ccccc21 (stereo not shown) [Ref. Ex. 5, Rasagiline Saccharinate]",solid,–
"C#CCN[C@@H]1CCc2ccccc21.CC(=O)O [Ref. Ex. 9, Rasagiline Acetate]",crystalline solid,–
